“Also recorded” adds a separate entry of the source. Where no end group is shown, it is not given here.
Legend:
[1] = system: mixed cardiac cells; test: High-content hypertrophy assay (Hypertrophy Score), PE-LIF-stimulated mixed cardiac cells treated with inhibitors; conditions: 96 h; for antihypertrophic effect (Hypertrophy Score), in words: comparison at 8 μM
[2] = system: mixed cardiac cells (CMs and non-CMs); conditions: for toxicity, in words: nuclei counts of CMs and non-CMs
[3] = system: purified CMs; test: qPCR of hypertrophic gene expression (Nppa, Nppb) in purified CMs; format: cell-based, rat; conditions: 100 µM PE + 50 ng/ml LIF, 24 h
[4] = system: mixed cardiac cells; test: Profiling of hypertrophic stimulants in mixed cardiac cell culture (Hypertrophy Score); conditions: stimulants at three concentrations
[5] = system: GRK2; conditions: read-out: GRK2 IC50; biochemical IC50, radiometric kinase inhibition assay; ref 40 (citation marks lost in text); cited from earlier work
[6] = system: purified CMs; test: Profiling of hypertrophic stimulants in purified CM culture (Hypertrophy Score)

Compound	antihypertrophic effect (Hypertrophy Score), in words ([1]; PE-LIF (20 μM, 50 ng/mL))	hypertrophic response (Hypertrophy Score), in words [4]	other results
Cc1nc2c(C(=O)Nc3c(C)[nH]c(/C=C4\C(=O)Nc5ccc(C(=O)N[C@H](C)c6ccc(F)cc6)cc54)c3C)cccc2[nH]1 [Compound 5m]	partially reduced the Hypertrophy Score	–	–
Cc1nc(C(=O)Nc2c(C)[nH]c(/C=C3\C(=O)Nc4ccc(C(=O)N[C@H](C)c5ccc(F)cc5)cc43)c2C)c(C)s1 [Compound 5d]	appeared to reduce hypertrophy	–	concentration at which CMs are affected ([2]; CM nuclei counts, 96 h): ≥ 2000 nM; concentration from which non-CM numbers are reduced ([2]; non-CM nuclei counts, 96 h): ≥ 500 nM; toxicity, in words [2]: excluded due to toxicity
Cc1[nH]c(/C=C2\C(=O)Nc3ccc(C(=O)N[C@H](C)c4ccc(F)cc4)cc32)c(C)c1NC(=O)[C@@H](O)c1ccco1 [Compound 4a]	most potent cellular inhibitor; also recorded: clear cellular effects	–	PE-LIF-induced upregulation of Nppa and Nppb, in words [3]: prevented PE-LIF-induced upregulation of Nppa and Nppb; concentration from which PE-LIF-induced Hypertrophy Score is significantly reduced ([1]; PE-LIF (20 μM, 50 ng/mL)): ≥ 3 µM; IC50 ([1]; Rattus norvegicus, read-out: cellular IC50 (antihypertrophic effects)): 4.7 µM
CNC[C@H](O)c1cccc(O)c1 [PE, phenylephrine]	–	strongest response	–
transforming growth factor beta [TGFβ]	–	little to no effect	–
Cc1[nH]c(/C=C2\C(=O)Nc3ccc(C(=O)N[C@H](C)c4ccc(F)cc4)cc32)c(C)c1NC(=O)C(=O)c1ccco1 [Compound 3]	partially reduced the Hypertrophy Score; also recorded: surprisingly poor cellular efficacy	–	IC50 [5]: […]; reduction in non-CM numbers (antiproliferative activity), in words ([2]; non-CM nuclei counts, 96 h): most pronounced
NC[C@H](O)c1ccc(O)c(O)c1 [NE, norepinephrine]	–	weaker response than PE alone	–
Cc1[nH]c(/C=C2\C(=O)Nc3ccc(C(=O)N[C@H](C)c4ccc(F)cc4)cc32)c(C)c1NC(=O)[C@H](O)c1ccco1 [Compound 4b]	no effect at any concentration; also recorded: lacked cellular efficacy; also recorded: no antihypertrophic efficacy	–	reduction in non-CM numbers (antiproliferative activity), in words ([2]; non-CM nuclei counts, 96 h): absent
leukemia inhibitory factor [LIF]	–	little to no effect	hypertrophic response (Hypertrophy Score), in words [6]: significantly increased the Hypertrophy Score
Cc1[nH]c(/C=C2\C(=O)Nc3ccc(C(=O)N[C@H](C)c4ccc(F)cc4)cc32)c(C)c1NC(=O)C1CCOCC1 [Compound 5i]	partially reduced the Hypertrophy Score	–	–
endothelin-1 (CSCSSLMDKECVYFCHLDIIW; not fully specified (bridges); ends and bridges not checked; UniProt P05305 53-73, looked up) [ET-1]	–	robust hypertrophic effects	–
Cc1[nH]c(/C=C2\C(=O)Nc3ccc(C(=O)N[C@H](C)c4ccc(F)cc4)cc32)c(C)c1NC(=O)[C@H]1CCC(=O)O1 [Compound 5k]	nor significant antihypertrophic effects; also recorded: lacked cellular efficacy	–	toxicity, in words [2]: neither toxicity
Cc1[nH]c(/C=C2\C(=O)Nc3ccc(C(=O)N[C@H](C)c4ccc(F)cc4)cc32)c(C)c1NC(=O)c1ccoc1 [Compound 5b]	nor significant antihypertrophic effects; also recorded: surprisingly poor cellular efficacy	–	toxicity, in words [2]: neither toxicity

Source: article PMC12794055, “High-Throughput Cardiac Hypertrophy Phenotyping Supports Lead Optimization of GRK5 Inhibitors” (ACS Medicinal Chemistry Letters, 2025)
